In patent US20180051316A1, “DETECTION OF NUCLEIC ACID POLYMERASE CONFORMATIONAL CHANGES USING A NANOTUBE” (priority 2014, published 2018):
pKi: −log10 of the molar value. “And” between values parts separate entries of the source, which are not always exact repeats. Equal entries are not always repeated. “Also recorded” adds a separate entry of the source. Where two headings read alike, the source gives them in different places. Marks after values point to notes of the source that are not given here.

Tests used:
[1] = target: T1, DNA polymerase I (Klenow Fragment) (Escherichia coli, UniProt P00582, C907S/D355A/E357A/L790C); type: biochemical; details: for frequency of ΔI(t) excursions relative to dGTP: complementary template-primer; for τopen events deviating from the single exponential fit / τopen events encompassed by single exponential fit: poly(dC)42; for τopen events encompassed by single exponential fit: more than 50 s of polymerization data; for direction of ΔI(t) excursions: poly(dC)42 template; for time constant of second exponential fit to tail of τopen distribution: poly(dC)42 template (FIG. 3B); for k: k=(<τopen>+<τclosed>)^−1; for <τclosed> / <τopen>: native dNTP 10 μM, analog 100 μM, average ± standard deviation; for direction of current spike ΔI per base incorporation: KF processing poly(dA)42
T1 construct: Single copies of the Klenow Fragment (KF) of DNA polymerase I were attached to single-walled carbon nanotube devices; made in house; host or cells: E. coli BL21(DE3)
Experimental: In embodiments, SWCNT-FETs are fabricated and functionalized with a single-cysteine variant of exonuclease-deficient KF (D355A/E357A/L790C/C907S). […] Attachment of KF to SWCNT-FETs is accomplished by soaking the devices in a solution of N-(1-pyrenyl)maleimide (1 mM in ethanol, 30 min), followed by incubation with KF (300 nM KF in a standard KF activity buffer of 20 mM Tris, 50 mM NaCl, 10 mM MgCl2, 100 μM TCEP, pH 8.0). […] Such devices are referred to simply as KF nanocircuits.
In embodiments, homopolymeric templates poly(dA)42, poly(dT)42, poly(dG)42, or poly(dC)42 mixed with complementary dNTP analogs are used for detecting conformational change of a polymerase, e.g., DNA polymerase. In embodiments, each template is fused to an M13 priming site and mixed with an M13 forward primer in a 1:1 stoichiometric ratio; for hybridization, the mixture is heated in a thermal cycler to 95° C. for 5 to 10 min followed by cooling to 65° C. then further cooling with a gradient of 5° C. every five min until reaching room temperature. In embodiments, KF nanocircuits are immersed in activity buffer with the annealed template-primer at 100 nM concentrations. Native or analog dNTPs are added to the buffer in excess, ensuring Vmax conditions for KF catalysis.
In embodiments, measurements consist of monitoring the source-drain current, I(t), through the SWCNT-FET while the attached KF molecule interacted with its surrounding environment. […] In embodiments, I(t) fluctuations are amplified, digitized at 100 kHz, and stored as uninterrupted, 600 s. Between measurements, the KF nanocircuits may be rinsed twice with activity buffer, incubated in buffer for 5 min, then rinsed twice with buffer before introducing another nucleotide and template-primer.
SWCNT FETs were fabricated and functionalized with a single cysteine variant of exonuclease-deficient KF. […] [20,21]
For each measurement, dNTPs were chosen to complement the homopolymeric templates poly(dA)42, poly(dT)42, poly(dG)42, and poly(dC)42. Each template was fused to an M13 priming site and mixed with an M13 forward primer in a 1:1 stoichiometric ratio; for hybridization, the mixture was heated to 95° C. for 5 to 10 minutes followed by cooling to room temperature. SWCNT FETs were immersed in a standard DNA Pol I activity buffer (20 mM Tris, 50 mM NaCl, 10 mM MgCl2, 100 μM TCEP, pH 8.0) with the template-primer hybrid at 100 nM concentration. Native or analog dNTPs were added to the buffer in excess, ensuring Vmax conditions for KF.
Measurements consisted of monitoring the source-drain current I(t) of a SWCNT FET while the attached KF molecule interacted with its surrounding environment.

KF = target: T2, KF (Escherichia coli, UniProt P00582, C907S/D355A/E357A/L790C); type: biochemical; details: 100 μM analog, 25° C., 2 h
T2 construct: Single copies of the Klenow Fragment (KF) of DNA polymerase I were attached to single-walled carbon nanotube devices; made in house; host or cells: E. coli BL21(DE3)
Experimental: Polymerization products with dNTP analogs and the A/T incorporation template (FIG. 8A) or the G/C incorporation template (FIG. 8B) were electrophoresed on a 5% high-resolution agarose gel. […] After visualization, the image colors were inverted, then changed to black and white.
Positive control reactions contained KF (1 μM), dNTPs or dNTP analogs (100 μM), and A/T or G/C incorporation template-primer (5 μM) in 10 mM Tris, 50 mM NaCl, 10 mM MgCl2, 1 mM DTT, pH 7.9. Reactions to test dNTP analog incorporation contained 100 μM analog in place of its native dNTP, and negative control reactions omitted either the analog or its native dNTP. Reactions were kept at 25° C. for 2 h in a thermal cycler before electrophoresis on a 5% high resolution agarose gel (FIG. 8B).

KF active site = KF active site (Escherichia coli, UniProt P00582); details: inhibition of KF catalysis; cited from earlier work
[2] = complementary homopolymeric template

T1 sequence (P00582 324-928 D355A/E357A/L790C/C907S): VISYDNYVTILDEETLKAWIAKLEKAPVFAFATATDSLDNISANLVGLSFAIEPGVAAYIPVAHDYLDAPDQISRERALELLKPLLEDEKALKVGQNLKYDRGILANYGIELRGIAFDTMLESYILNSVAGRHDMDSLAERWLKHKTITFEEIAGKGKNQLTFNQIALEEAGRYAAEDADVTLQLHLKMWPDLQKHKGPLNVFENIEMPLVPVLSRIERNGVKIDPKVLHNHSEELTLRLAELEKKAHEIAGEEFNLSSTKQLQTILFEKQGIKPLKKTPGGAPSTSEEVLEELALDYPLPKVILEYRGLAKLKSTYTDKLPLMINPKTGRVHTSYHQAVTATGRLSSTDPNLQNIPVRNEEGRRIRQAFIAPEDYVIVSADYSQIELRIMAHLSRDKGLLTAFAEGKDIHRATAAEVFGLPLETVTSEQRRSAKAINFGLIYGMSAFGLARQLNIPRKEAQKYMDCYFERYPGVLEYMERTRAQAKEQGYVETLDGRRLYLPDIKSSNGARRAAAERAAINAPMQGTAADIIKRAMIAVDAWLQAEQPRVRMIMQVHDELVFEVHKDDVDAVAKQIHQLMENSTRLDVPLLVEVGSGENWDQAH
T2 sequence (P00582 324-928 D355A/E357A/L790C/C907S): as above
Chain of KF active site (P00582 324-928): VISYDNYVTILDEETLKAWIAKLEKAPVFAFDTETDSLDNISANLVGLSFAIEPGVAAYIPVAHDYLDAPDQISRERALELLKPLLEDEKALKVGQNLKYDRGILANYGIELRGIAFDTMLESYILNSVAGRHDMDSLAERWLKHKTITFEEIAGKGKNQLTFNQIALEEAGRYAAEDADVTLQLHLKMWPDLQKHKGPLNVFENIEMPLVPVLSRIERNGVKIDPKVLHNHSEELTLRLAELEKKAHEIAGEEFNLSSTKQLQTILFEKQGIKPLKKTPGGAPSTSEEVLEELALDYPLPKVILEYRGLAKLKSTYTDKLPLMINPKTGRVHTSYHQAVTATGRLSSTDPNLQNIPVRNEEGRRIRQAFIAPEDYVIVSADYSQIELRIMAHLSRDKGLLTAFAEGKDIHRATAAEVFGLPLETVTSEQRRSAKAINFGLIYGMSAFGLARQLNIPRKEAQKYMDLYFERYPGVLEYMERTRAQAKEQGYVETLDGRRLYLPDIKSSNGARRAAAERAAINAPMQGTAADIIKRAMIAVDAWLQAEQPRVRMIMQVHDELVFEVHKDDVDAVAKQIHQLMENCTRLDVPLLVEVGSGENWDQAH

Nc1nc(Cl)c2ncn([C@H]3C[C@H](O)[C@@H](COP(=O)(O)OP(=O)(O)OP(=O)(O)O)O3)c2n1 [6-Cl-2APTP, 2-amino-6-Cl-purine-2′-deoxyriboside-triphosphate]
average KF processing rate k for dNTP incorporation [1, 2]: 20 s⁻¹
enzyme closure time τclosed compared to native dNTPs [1, 2]: no difference
rate of incorporation compared with native dNTPs [1, 2]: compared most favorably to the slowest rates observed for native dGTP incorporation; also recorded: more quickly than native dATP
τopen relative to native dNTP (times longer) [1, 2]: about twice as long
frequency of ΔI(t) excursions relative to dGTP [1]: two to three times less frequently
direction of ΔI(t) current fluctuations ([1]; complementary template-primers): positive current fluctuations
direction of current spikes ([1]; heterogeneous substrates, nucleotide mixtures (FIG. 5A, 5C)): positive current spikes
direction of ΔI(t) signals ([1]; opposite both poly(dC)42 and poly(dT)42 templates): inverted amplitude
rate of ΔI(t) excursions relative to dGTP ([1]; opposite poly(dC)42): 80%
τopen events deviating from the single exponential fit [1]: Approximately twenty-five percent
τopen events encompassed by single exponential fit [1]: ≈ 75%
direction of ΔI(t) excursions [1]: Positive ΔI(t) excursions
time constant of second exponential fit to tail of τopen distribution [1]: 200 ms
k ([1]; template poly(dC)42): 19.7 ± 0.6 s⁻¹
<τclosed> ([1]; template poly(dC)42): 0.20 ± 0.12 ms
<τopen> ([1]; template poly(dC)42): 50.5 ± 1.4 ms
<τopen> ([1]; template poly(dC)42, listed as 6-Cl-dGTP): 50 ± 1 ms
incorporation into dsDNA, native counterpart omitted (KF; A/T incorporation template): incorporated opposite the template base T
incorporation into dsDNA, native counterpart omitted (KF; G/C incorporation template): incorporated opposite the template base C

Cc1cn(C2CC(O)C(COP(O)(=S)OP(=O)(O)OP(=O)(O)O)O2)c(=O)[nH]c1=O (single isomer, unassigned) [Rp diastereomer of α-thio-dTTP]
pKi (KF active site): ~4.52

Cc1cn([C@H]2C[C@H](O)[C@@H](COP(O)(=S)OP(=O)(O)OP(=O)(O)O)O2)c(=O)[nH]c1=O (stereo partly drawn) [α-thio-dTTP]
average KF processing rate k for dNTP incorporation [1, 2]: 7 s⁻¹
k ([1]; template poly(dA)42): 6.6 ± 0.3 s⁻¹
<τclosed> ([1]; template poly(dA)42): 0.29 ± 0.13 ms
<τopen> ([1]; template poly(dA)42): 152.1 ± 6.6 ms
incorporation into dsDNA, native counterpart omitted (KF; A/T incorporation template): incorporated opposite the template base A

Cc1cn([C@H]2C[C@H](O)[C@@H](COP(=O)(O)OP(=O)(O)OP(=O)(O)O)O2)c(=O)[nH]c1=O [dTTP, deoxythymidine triphosphate]
direction of current spike ΔI per base incorporation [1]: negative current spike ΔI<0
k ([1]; template poly(dA)42): 14.3 ± 0.5 s⁻¹
<τclosed> ([1]; template poly(dA)42): 0.33 ± 0.12 ms
<τopen> ([1]; template poly(dA)42): 69.6 ± 2.3 ms

Cc1cn([C@H]2C[C@H](O)[C@@H](COP(=O)(O)OP(=O)(O)OP(=O)(O)O)O2)c(=S)[nH]c1=O [2-thio-dTTP, 2-thio-2′-deoxythimidine-5′-triphosphate]
direction of current spike ΔI per base incorporation [1]: positive current spikes ΔI>0
average KF processing rate k for dNTP incorporation [1, 2]: 16 s⁻¹
enzyme closure time τclosed compared to native dNTPs [1, 2]: no difference
rate of incorporation compared with native dNTPs [1, 2]: slightly faster; also recorded: approximately the same
k ([1]; template poly(dA)42): 16.3 ± 0.9^b 1/s
<τclosed> ([1]; template poly(dA)42): 0.23 ± 0.14^b ms
<τopen> ([1]; template poly(dA)42): 61.1 ± 3.2^b ms
incorporation into dsDNA, native counterpart omitted (KF; A/T incorporation template): incorporated opposite the template base A

Nc1ccn([C@H]2C[C@H](O)[C@@H](COP(=O)(O)OP(=O)(O)OP(=O)(O)O)O2)c(=O)n1 [dCTP]
k ([1]; template poly(dG)42): 23.2 ± 3.2 s⁻¹
<τclosed> ([1]; template poly(dG)42): 0.35 ± 0.20 ms
<τopen> ([1]; template poly(dG)42): 42.8 ± 5.0 ms

Nc1ccn([C@H]2C[C@H](O)[C@@H](COP(O)(=S)OP(=O)(O)OP(=O)(O)O)O2)c(=O)n1 (stereo partly drawn) [α-thio-dCTP]
average KF processing rate k for dNTP incorporation [1, 2]: 15 s⁻¹
k ([1]; template poly(dG)42): 14.5 ± 1.0 s⁻¹
<τclosed> ([1]; template poly(dG)42): 0.33 ± 0.19 ms
<τopen> ([1]; template poly(dG)42): 68.8 ± 4.6 ms
incorporation into dsDNA, native counterpart omitted (KF; G/C incorporation template): incorporated opposite the template base G

Nc1ncnc2c1ncn2[C@H]1C[C@H](O)[C@@H](COP(=O)(O)OP(=O)(O)OP(=O)(O)O)O1 [dATP]
k ([1]; template poly(dT)42): 16.8 ± 0.4 s⁻¹
<τclosed> ([1]; template poly(dT)42): 0.34 ± 0.18 ms
<τopen> ([1]; template poly(dT)42): 58.9 ± 1.2 ms

Nc1nc2c(ncn2[C@H]2C[C@H](O)[C@@H](COP(=O)(O)OP(=O)(O)OP(=O)(O)O)O2)c(=O)[nH]1 [dGTP]
average KF processing rate k for dNTP incorporation [1, 2]: 41 s⁻¹
τopen events encompassed by single exponential fit [1]: > 90%
direction of ΔI(t) excursions [1]: negative ΔI(t) excursions
k ([1]; template poly(dC)42): 24.3 ± 4.3 s⁻¹
<τclosed> ([1]; template poly(dC)42): 0.40 ± 0.20 ms
<τopen> ([1]; template poly(dC)42): 40.8 ± 6.0 ms

Nc1nc2c(ncn2[C@H]2C[C@H](O)[C@@H](COP(O)(=S)OP(=O)(O)OP(=O)(O)O)O2)c(=O)[nH]1 (stereo partly drawn) [α-thio-dGTP]
average KF processing rate k for dNTP incorporation [1, 2]: 15 s⁻¹
increase of <τopen> relative to native dNTP [1, 2]: 56%
τopen relative to native dNTP (times longer) [1, 2]: approximately 2.5
frequency of ΔI(t) excursions relative to dGTP [1]: two to three times less frequently
τopen events deviating from the single exponential fit [1]: Approximately twenty-five percent
τopen events encompassed by single exponential fit [1]: ≈ 75%
time constant of second exponential fit to tail of τopen distribution [1]: 200 ms
k ([1]; template poly(dC)42): 15.7 ± 0.7 s⁻¹
<τclosed> ([1]; template poly(dC)42): 0.21 ± 0.15 ms
<τopen> ([1]; template poly(dC)42): 63 ± 3 ms and 63.6 ± 2.8 ms
incorporation into dsDNA, native counterpart omitted (KF; G/C incorporation template): incorporated opposite the template base C

Nc1ncnc2c1ncn2[C@H]1C[C@H](O)[C@@H](COP(O)(=S)OP(=O)(O)OP(=O)(O)O)O1 (stereo partly drawn) [α-thio-dATP]
effect of lower analog concentration on DNA polymerization ([1]; 10 μM analog instead of 100 μM, poly(dT)42 template): did not affect DNA polymerization
average KF processing rate k for dNTP incorporation [1, 2]: 7 s⁻¹
k ([1]; template poly(dT)42): 6.8 ± 0.4 s⁻¹
<τclosed> ([1]; template poly(dT)42): 0.38 ± 0.21 ms
<τopen> ([1]; template poly(dT)42): 145 ms and 145.9 ± 8.4 ms
incorporation into dsDNA, native counterpart omitted (KF; A/T incorporation template): incorporated opposite the template base T

Nc1ccn([C@H]2C[C@H](O)[C@@H](COP(=O)(O)OP(=O)(O)OP(=O)(O)O)O2)c(=S)n1 [2-thio-dCTP]
enzyme closure time τclosed compared to native dNTPs [1, 2]: no difference
rate of incorporation compared with native dNTPs [1, 2]: slightly faster; also recorded: approximately the same
k ([1]; template poly(dG)42): 30.6 ± 1.2^b 1/s
<τclosed> ([1]; template poly(dG)42): 0.41 ± 0.15^b ms
<τopen> ([1]; template poly(dG)42): 32.3 ± 1.1^b ms
incorporation into dsDNA, native counterpart omitted (KF; G/C incorporation template): incorporated opposite the template base G
